These results are taken from patent US11819532B2, “Peptide macrocycles against Acinetobacter baumannii” (Hoffmann-La Roche Inc., priority 2018, dated 2023).

Data set [1] is described as follows: Plasma precipitation screening assay. Set-up: species or system rat. The following applies: Wistar (Hanbrl:Wist SPF), rat, 10 min. How it is done:
An aliquot (10 μL) of compound solubilized in physiological buffer or the formulation used for its parenteral administration in vivo, and of various dilutions thereof in phosphate-buffered saline (PBS), is mixed 1:1 with rat plasma. After 10 minutes incubation at room temperature the UV-absorption of the mixtures is measured and compared to absorption of blank plasma or plasma with vehicle solution. A significant (often concentration dependent) increase of absorption is indicative of precipitation.
Whole blood is obtained from WISTAR rats (Hanbrl:Wist SPF) under terminal anaesthesia after intraperitoneal injection of a pentobarbital solution (from animals euthanized for collection of tissue for other experimental purposes). Blood is collected in 1.2 mL of Heparin S-Monovette tubes (Sarstedt) for the preparation of heparin plasma.
The tubes are then centrifuged for 5 min at 5200 g at room temperature to isolate the plasma supernatant. The plasma is used in the assay within 48 h of collection (storage at 4° C.).
Test compounds are received as powder or formulated. When obtained as powder, they are solubilized in 0.9% aq. sodium chloride solution in order to get the highest indicated concentration to be tested. The solubility is visually checked and the solutions are filtered using 0.45 PVDF hydrophilic filters (Durapore®, Darmstadt, Germany), to remove possible solid impurities. pH of this initial solution might be measured in the filtered stock solutions, before proceeding to prepare a compound dilution series in PBS (1:1-dilution steps).
The assay is conducted in 384-well plates. 10 μL of rat plasma is added to 10 μL of the various compound solutions. The assay is performed in duplicate. 10 μL of vehicle (0.9% aq. sodium chloride solution, PBS) added to the plasma is used as a negative control. The absorption is measured at 362 nm.
Raw data obtained are absorbance data. The difference between absorbance of the sample and mean absorbance of vehicle is calculated. The minimal effect concentration (MEC) is defined as the lowest concentration giving an absorbance difference, OD362≥0.05.

The test system of data set [2] is A. baumannii ATCC 17978. Nature of the data set: 50% growth inhibitory concentration (IC50) determination, antimicrobial susceptibility testing. Conditions: Acinetobacter baumannii; 50% growth inhibition, A. baumannii strain ATCC17978, Iso-Sensitest medium; read-out: IC50 ATCC17978. It is filed as cell-based. How it is done: The in vitro antimicrobial activity of the compounds was alternatively determined according to the following procedure:
The assay used a 10-points Iso-Sensitest broth medium to measure quantitatively the in vitro activity of the compounds against A. baumannii ATCC 17978.
Stock compounds in DMSO were serially twofold diluted (e.g. range from 50 to 0.097 μM or from 10 to 0.020 μM final concentration) in 384 wells microtiter plates and inoculated with 49 μl the bacterial suspension in Iso-Sensitest medium to have a final cell concentration of ˜5×10^(5)CFU/ml in a final volume/well of 50 μl/well. Microtiter plates were incubated at 35±2° C.
Bacterial cell growth was determined with the measurement of optical density at X=600 nm each 20 minutes over a time course of 16h.
Growth inhibition was calculated during the logarithmic growth of the bacterial cells with determination of the concentration inhibiting 50% (IC50) and 90% (IC90) of the growth.
Table 1 provides the 50% growth inhibitory concentrations (IC50) in micromoles per liter of the compounds of present invention obtained against the A. baumannii strain ATCC17978.

By IC50 is commonly meant the concentration needed to halve the response being measured. As for `CN1C(=O)[C@H](CCCCN)NC(=O)[C@H](CCCN)NCc2nccnc2Sc2c(Cl)ccc(-c3ccc(C(=O)O)c(Cl)c3)c2CNC(=O)[C@@H]1Cc1c[nH]c2ccccc12` (racemic) [Example 8.01, 2-chloro-4-[rac-(11S,14S,17S)-14-(4-aminobutyl)-11-(3-aminopropyl)-25-chloro-17-(1H-indo1-3-ylmethyl)-16-methyl-12,15,18-trioxo-2-thia-4,7,10,13,16,19-hexazatricyclo[19.4.0.03,8]pentacosa-1(21),3,5,7,22,24-hexaen-22-yl]benzoic acid], in data set [1], the “Plasma precipitation MEC” value amounted to 760 µmol/L. Also, the half-inhibitory concentration (IC50) in data set [2] was determined as 28 nM.

Turning to `COc1cc(-c2ccc(Cl)c3c2CNC(=O)[C@H](Cc2c[nH]c4ccccc24)N(C)C(=O)[C@H](CCCCN)NC(=O)[C@H](CCCN)NCc2nccnc2S3)ccc1C(=O)O` (racemic) [Example 8.03, 2-methoxy-4-[rac-(11S,14S,17S)-14-(4-aminobutyl)-11-(3-aminopropyl)-25-chloro-17-(1H-indo1-3-ylmethyl)-16-methyl-12,15,18-trioxo-2-thia-4,7,10,13,16,19-hexazatricyclo [19.4.0.03,8]pentacosa-1(25),3(8),4,6,21,23-hexaen-22-yl]benzoic acid], in data set [1], the “Plasma precipitation MEC” value is 760 µmol/L. The IC50 in data set [2] turned out to be 78 nM. Consider `CN1C(=O)[C@H](CCCCN)NC(=O)[C@H](CCCN)NCc2cccnc2Sc2c(Cl)ccc(-c3ccc(C(=O)O)c(S(C)(=O)=O)c3)c2CNC(=O)[C@@H]1Cc1c[nH]c2ccccc12` [Example 2.00, 4-[(11S,14S,17S)-14-(4-Aminobutyl)-11-(3-aminopropyl)-25-chloro-17-(1H-indol-3-ylmethyl)-16-methyl-12,15,18-trioxo-2-thia-4,10,13,16,19-pentazatricyclo[19.4.0.03,8]pentacosa-1(25), 3(8), 4,6,21,23-hexaen-22-yl]-2-methylsulfonyl-benzoic Acid], for which the “Plasma precipitation MEC” value in data set [1] was found to be 950 µmol/L. In addition, the half-maximal inhibitory concentration (IC50) in data set [2] was 73 nM. With `CN1C(=O)[C@H](CCCCN)NC(=O)[C@H](CCCN)NCc2cccnc2Sc2c(Cl)ccc(-c3ccn4nc(C(=O)O)cc4c3)c2CNC(=O)[C@@H]1Cc1c[nH]c2ccccc12` [Example 2.01, 5-[(11S,14S,17S)-14-(4-aminobutyl)-11-(3-aminopropyl)-25-chloro-17-(1H-indo1-3-ylmethyl)-16-methyl-12,15,18-trioxo-2-thia-4,10,13,16,19-pentazatricyclo[19.4.0.03,8]pentacosa-1(25),3(8),4,6,21,23-hexaen-22-yl]pyrazolo[1,5-a]pyridine-2-carboxylic acid], the “Plasma precipitation MEC” value in data set [1] came out at 820 µmol/L. Besides, the 50% inhibitory concentration (IC50) in data set [2] turned out to be 20 nM.

Turning to `Cc1[nH]c2ccccc2c1C[C@H]1C(=O)NCc2c(cccc2-c2ccc(C(=O)O)cc2)Sc2ncccc2CN[C@@H](CCCN)C(=O)N[C@@H](CCCCN)C(=O)N1C` [Example 6.00, 4-[(11S,14S,17S)-14-(4-Aminobutyl)-11-(3-aminopropyl)-16-methyl-17-[(2-methyl-1H-indol-3-yl)methyl]-12,15,18-trioxo-2-thia-4,10,13,16,19-pentazatricyclo[19.4.0.03,8]pentacosa-1(25), 3,5,7,21,23-hexaen-22-yl]benzoic Acid], the “Plasma precipitation MEC” value in data set [1] amounted to 1090 µmol/L. In addition, the IC50 in data set [2] stood at 23 nM.

For the compound `Cc1[nH]c2ccccc2c1C[C@H]1C(=O)NCc2c(-c3ccn(CC(=O)O)c(=O)c3)ccc(Cl)c2Sc2ncccc2CN[C@@H](CCCN)C(=O)N[C@@H](CCCCN)C(=O)N1C` [Example 7.01, 2-[4-[(1 S,14S,17S)-14-(4-Aminobutyl)-11-(3-aminopropyl)-25-chloro-16-methyl-17-[(2-methyl-1H-indol-3-yl)methyl]-12,15,18-trioxo-2-thia-4,10,13,16,19-pentazatricyclo[19.4.0.03,8]pentacosa-1(25), 3(8), 4,6,21,23-hexaen-22-yl]-2-oxo-1-pyridyl]acetic Acid], in data set [1], the “Plasma precipitation MEC” value was 1650 µmol/L. Moreover, in data set [2], the concentration for half-maximal inhibition (IC50) turned out to be 46 nM.

`CN1C(=O)[C@H](CCCN)NC(=O)[C@H](CCCN)NCc2cccnc2Sc2c(Cl)ccc(-c3ccc(C(=O)O)cc3)c2CNC(=O)[C@@H]1Cc1c[nH]c2ccccc12` [Example 12.00, 4-[(11S,14S,17S)-11,14-bis(3-Aminopropyl)-25-chloro-17-(1H-indol-3-ylmethyl)-16-methyl-12,15,18-trioxo-2-thia-4,10,13,16,19-pentazatricyclo[19.4.0.03,8]pentacosa-1(21), 3,5,7,22,24-hexaen-22-yl]benzoic Acid]: the 50% inhibitory concentration (IC50) in data set [2] came to 19 nM. Regarding `CN1C(=O)[C@H](CCN)NC(=O)[C@H](CCCN)NCc2cccnc2Sc2c(Cl)ccc(-c3ccc(C(=O)O)cc3)c2CNC(=O)[C@@H]1Cc1c[nH]c2ccccc12` [Example 13.00, 4-[(11S,14S,17S)-14-(2-Aminoethyl)-11-(3-aminopropyl)-25-chloro-17-(1H-indol-3-ylmethyl)-16-methyl-12,15,18-trioxo-2-thia-4,10,13,16,19-pentazatricyclo[19.4.0.03,8]pentacosa-1(25), 3(8), 4,6,21,23-hexaen-22-yl]benzoic Acid], the IC50 in data set [2] was 20 nM. `CN1C(=O)[C@H](CCCN)NC(=O)[C@H](CCCN)NCc2cccnc2Sc2c(F)ccc(-c3ccc(C(=O)O)cc3)c2CNC(=O)[C@@H]1Cc1c[nH]c2ccccc12` [Example 14.00, 4-[(1 S,14S,17S)-11,14-bis(3-Aminopropyl)-25-fluoro-17-(H-indol-3-ylmethyl)-16-methyl-12,15,18-trioxo-2-thia-4,10,13,16,19-pentazatricyclo[19.4.0.03,8]pentacosa-1(25), 3(8), 4,6,21,23-hexaen-22-yl]benzoic Acid]: in data set [2], the concentration for half-maximal inhibition (IC50) was found to be 21 nM. As for `CN1C(=O)[C@H](CCCCN)NC(=O)[C@H](CCN)NCc2cccnc2Sc2c(Cl)ccc(-c3ccc(C(=O)O)cc3)c2CNC(=O)[C@@H]1Cc1c[nH]c2ccccc12` [Example 15.00, 4-[(1 S,14S,7S)-14-(4-Aminobutyl)-11-(2-aminoethyl)-25-chloro-17-(1H-indol-3-ylmethyl)-16-methyl-12,15,18-trioxo-2-thia-4,10,13,16,19-pentazatricyclo[19.4.0.03,8]pentacosa-1(25), 3(8), 4,6,21,23-hexaen-22-yl]benzoic Acid], the half-inhibitory concentration (IC50) in data set [2] turned out to be 20 nM.

Consider `CN1C(=O)[C@H](CCCN)NC(=O)[C@H](CCN)NCc2cccnc2Sc2c(Cl)ccc(-c3ccc(C(=O)O)cc3)c2CNC(=O)[C@@H]1Cc1c[nH]c2ccccc12` [Example 16.00, 4-[(11S,14S,17S)-11-(2-Aminoethyl)-14-(3-aminopropyl)-25-chloro-17-(1H-indol-3-ylmethyl)-16-methyl-12,15,18-trioxo-2-thia-4,10,13,16,19-pentazatricyclo[19.4.0.03,8]pentacosa-1(25), 3(8), 4,6,21,23-hexaen-22-yl]benzoic Acid], for which the IC50 in data set [2] came to 20 nM. With `CN1C(=O)[C@H](CCCN)NC(=O)[C@H](CCCN)NCc2cccnc2Sc2cccc(-c3ccc(C(=O)O)cc3)c2CNC(=O)[C@@H]1Cc1c[nH]c2ccccc12` [Example 17.00, 4-[(1 S,14S,17S)-11,14-bis(3-Aminopropyl)-17-(1H-indol-3-ylmethyl)-16-methyl-12,15,18-trioxo-2-thia-4,10,13,16,19-pentazatricyclo[19.4.0.03,8]pentacosa-1(25), 3 (8),4,6,21,23-hexaen-22-yl]benzoic Acid], the IC50 in data set [2] worked out at 75 nM.
